Holding throughout (assay type): cell-based
One test deals with wild type BaF3. Nature of the test: Growth inhibition of wild type BaF3 cells (broad-spectrum toxicity). The conditions noted are these: Mus musculus, BaF3, 48 h, MTS. An outline of the steps:
(§1)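 MTS absorbance at 490 nm, measured 1–4 h after reagent addition, reports growth after 48 h compound exposure (37 °C, 5% CO2) of 2×10^4 cells/well. Eight 1/3-step concentrations from a 10 μM top, 0.1% DMSO; triplicate inhibition relative to vehicle and blank gives IC50.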

The test system of another test is lung cancer cells H3122. Nature of the test: Growth inhibition of tumor cells H3122. The conditions noted are these: Homo sapiens, NCI-H3122.
The test system of the next test is lung cancer cells A549. Nature of the test: Growth inhibition of tumor cells A549. Particulars: Homo sapiens.
Another test concerns melanoma A375. Nature of the test: Growth inhibition of tumor cells A375. Particulars: Homo sapiens, A-375.
The next test addresses T1, EML4-ALK-BaF3 (Homo sapiens, UniProt Q9UM73).
T1 construct: expressed in transfected cells; host or cells: Ba/F3 cells; the other entry of the earlier key: EML4 (Q9HC35, Echinoderm microtubule-associated protein-like 4)
Nature of the test: Growth inhibition of EML4-ALK transformed BaF3 cells (MTS). The conditions noted are these: for IC50: EML4-ALK-BaF3 cells, 48 hours, MTS, Table 11. In a few lines:
(§2)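 Ba/F3 cells (2×10^4/well) in DMEM or RPMI1640 with 10% FBS exposed to 8 compound concentrations (top 10 μM, 1/3 serial dilution, 0.1% DMSO) for 48 h at 37 °C, 5% CO2. Viability by MTS/PES, 1-4 h, OD 490 nm; triplicates. IC50 fitted from inhibition rate.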

The next test addresses T2, NPM-ALK-BaF3 (Homo sapiens, UniProt Q9UM73).
T2 construct: expressed in transfected cells; host or cells: Ba/F3 cells; the other entry of the earlier key: NPM1 (P06748, Nucleophosmin)
Nature of the test: Growth inhibition of NPM-ALK transformed BaF3 cells (MTS). Particulars: 48 hours, Table 11. An outline of the steps:
as §1

The target of another test is T3, EML4-ALK (L1196M)-BaF3 (Homo sapiens, UniProt Q9UM73, L1196M).
T3 construct: expressed in transfected cells; host or cells: Ba/F3 cells; the other entry of the earlier key: EML4 (Q9HC35, Echinoderm microtubule-associated protein-like 4)
Nature of the test: Growth inhibition of EML4-ALK (L1196M) transformed BaF3 cells (MTS). The conditions noted are these: 48 hours, Table 11, read-out: EML4-ALK (L1196M) (IC50 nM). An outline of the steps:
as §2

The subject of test [1] is DFC1076 (crizotinib resistant tumor cell lines). Nature of the test: Growth inhibition of tumor cells DFC1076. The conditions noted are these: ALK kinase-positive lung cancer cell line.
The next test concerns breast cancer MCF7. Nature of the test: Growth inhibition of tumor cells MCF7. Particulars: Homo sapiens.
The next test deals with liver cancer HepG2. Nature of the test: Growth inhibition of tumor cells HepG2. The conditions noted are these: Homo sapiens.

`C[C@@H](Oc1cc(-c2cnn(C3CCNCC3)c2)cnc1N)c1c(Cl)ccc(F)c1Cl` [Crizotinib, crizotinib, reference compound]: the IC50 in the test with wild type BaF3 (Table 11) was 1080 nM; in the test with wild type BaF3 (Table 12), 1080 nM; in the test with lung cancer cells H3122 it was 185 nM; in the test with lung cancer cells A549 it was 2400 nM.

As to `COc1cc(N2CCC(N3CCN(C)CC3)CC2)ccc1Nc1nc(Nc2ccccc2S(=O)(=O)C(C)C)c2[nH]ccc2n1` [ID-3], the IC50 with melanoma A375 was 3760 nM; against EML4-ALK-BaF3, 14.9 nM; at NPM-ALK-BaF3, 303 nM; on EML4-ALK (L1196M)-BaF3, 168 nM; in the test with wild type BaF3 (Table 11) it was 1010 nM; in the test with breast cancer MCF7, 2840 nM. Moreover, the results for the IC50 in the test on lung cancer cells H3122, in the test with lung cancer cells A549 and in the test with liver cancer HepG2 were 61.1 nM, 2720 nM and 3440 nM, respectively. In addition, at EML4-ALK-BaF3 (ratio of IC50 between wild-type BaF3 and ALK transformed BaF3 cells), the targeting selectivity entry is reported as “good targeting selectivity”. Further, the growth inhibition result in test [1] was “good growth inhibition”.

`CC(C)S(=O)(=O)c1ccccc1CNc1nc(Nc2ccc(N3CCN(C)CC3)cc2)nc2cc[nH]c12` [IO-5]: the half-maximal inhibitory concentration (IC50) at EML4-ALK-BaF3 was found to be 4870 nM; on NPM-ALK-BaF3 it was 5030 nM; on EML4-ALK (L1196M)-BaF3 it was 5200 nM; in the test with wild type BaF3 (Table 11), 1910 nM.

On to `CNc1nc(Nc2ccc(N3CCC(N4CCN(C)CC4)CC3)cc2OC)nc2cc[nH]c12` [IQ-2], for which the half-maximal inhibitory concentration (IC50) against EML4-ALK-BaF3, against NPM-ALK-BaF3, on EML4-ALK (L1196M)-BaF3 and with wild type BaF3 (Table 11) was above 10000 nM each time.

For `CNc1nc(Nc2ccc(N3CCC(O)CC3)cc2)nc2cc[nH]c12` [IQ-3], the IC50 on EML4-ALK-BaF3, at NPM-ALK-BaF3, at EML4-ALK (L1196M)-BaF3 and in the test on wild type BaF3 (Table 11) was above 10000 nM in each case.

Regarding `CNc1nc(Nc2ccc(S(N)(=O)=O)cc2)nc2cc[nH]c12` [IQ-4], the IC50 against EML4-ALK-BaF3, against NPM-ALK-BaF3, on EML4-ALK (L1196M)-BaF3 and with wild type BaF3 (Table 11) was above 10000 nM in each case.

In the case of `CNc1nc(Nc2ccc(C(=O)N3CCOCC3)cc2OC)nc2cc[nH]c12` [IQ-5], the IC50 at EML4-ALK-BaF3, against NPM-ALK-BaF3, on EML4-ALK (L1196M)-BaF3 and with wild type BaF3 (Table 11) was above 10000 nM in each case.

Take `CNc1nc(Nc2ccc(C(=O)N3CCN(C)CC3)cc2OC)nc2cc[nH]c12` [IQ-6]: the IC50 against EML4-ALK-BaF3, at NPM-ALK-BaF3, at EML4-ALK (L1196M)-BaF3 and with wild type BaF3 (Table 11) was above 10000 nM in each case.

For the molecule `CCNc1nc(Nc2ccc(N3CCN(C)CC3)cc2OC)nc2cc[nH]c12` [IR-1], the concentration for half-maximal inhibition (IC50) against EML4-ALK-BaF3, against NPM-ALK-BaF3, on EML4-ALK (L1196M)-BaF3 and with wild type BaF3 (Table 11) was above 10000 nM in each case.

Take `CCNc1nc(Nc2ccc(N3CCC(N4CCN(C)CC4)CC3)cc2OC)nc2cc[nH]c12` [IR-2]: the 50% inhibitory concentration (IC50) against EML4-ALK-BaF3, against NPM-ALK-BaF3, at EML4-ALK (L1196M)-BaF3 and with wild type BaF3 (Table 11) was above 10000 nM throughout.

Take `CCNc1nc(Nc2ccc(N3CCC(O)CC3)cc2)nc2cc[nH]c12` [IR-3]: the IC50 on EML4-ALK-BaF3, against NPM-ALK-BaF3, on EML4-ALK (L1196M)-BaF3 and in the test with wild type BaF3 (Table 11) was above 10000 nM throughout.

`COc1cc(N2CCN(C)CC2)ccc1Nc1nc(NC2CC2)c2[nH]ccc2n1` [IS-1]: the 50% inhibitory concentration (IC50) at EML4-ALK-BaF3 is around 2550 nM; against NPM-ALK-BaF3 it was 1790 nM; at EML4-ALK (L1196M)-BaF3, 1700 nM; in the test on wild type BaF3 (Table 11) it was 5330 nM.

For `COc1cc(N2CCC(N3CCN(C)CC3)CC2)ccc1Nc1nc(NC2CC2)c2[nH]ccc2n1` [IS-2], the IC50 on EML4-ALK-BaF3 was above 10000 nM; at NPM-ALK-BaF3 it was above 10000 nM; at EML4-ALK (L1196M)-BaF3, 5030 nM; with wild type BaF3 (Table 11), above 10000 nM.

Consider `OC1CCN(c2ccc(Nc3nc(NC4CC4)c4[nH]ccc4n3)cc2)CC1` [IS-3], for which the IC50 against EML4-ALK-BaF3 was 4480 nM; against NPM-ALK-BaF3 it was above 10000 nM; at EML4-ALK (L1196M)-BaF3, 9710 nM; with wild type BaF3 (Table 11) it was 11800 nM.

Regarding `NS(=O)(=O)c1ccc(Nc2nc(NC3CC3)c3[nH]ccc3n2)cc1` [IS-4], the concentration for half-maximal inhibition (IC50) against EML4-ALK-BaF3, against NPM-ALK-BaF3, at EML4-ALK (L1196M)-BaF3 and in the test with wild type BaF3 (Table 11) was above 10000 nM each time.

For `COC(=O)c1ccccc1Sc1nc(Nc2ccc(N3CCN(C)CC3)cc2OC)nc2cc[nH]c12` [IU-1], the IC50 against EML4-ALK-BaF3, on NPM-ALK-BaF3, at EML4-ALK (L1196M)-BaF3 and in the test with wild type BaF3 (Table 11) was above 10000 nM in each case.

As for `COC(=O)c1ccccc1Sc1nc(Nc2ccc(N3CCC(N4CCN(C)CC4)CC3)cc2OC)nc2cc[nH]c12` [IU-2], the IC50 at EML4-ALK-BaF3 was 4580 nM; against NPM-ALK-BaF3 it was 4900 nM; at EML4-ALK (L1196M)-BaF3 it was 2670 nM; with wild type BaF3 (Table 11) it was around 8340 nM.

`COC(=O)c1ccccc1Sc1nc(Nc2ccc(N3CCC(O)CC3)cc2)nc2cc[nH]c12` [IU-3]: the IC50 at EML4-ALK-BaF3 amounted to 4900 nM; against NPM-ALK-BaF3, 8270 nM; on EML4-ALK (L1196M)-BaF3 it was 4180 nM; in the test with wild type BaF3 (Table 11), 6520 nM.

On to `COC(=O)c1ccccc1Sc1nc(Nc2ccc(S(N)(=O)=O)cc2)nc2cc[nH]c12` [IU-4], for which the IC50 at EML4-ALK-BaF3 is 9110 nM; against NPM-ALK-BaF3 it was above 10000 nM; on EML4-ALK (L1196M)-BaF3, 5990 nM; in the test with wild type BaF3 (Table 11), above 10000 nM.

`COC(=O)c1ccccc1Sc1nc(Nc2ccc(N3CCC(N4CCCC4)CC3)cc2OC)nc2cc[nH]c12` [IU-5]: the half-maximal inhibitory concentration (IC50) was around 2880 nM against EML4-ALK-BaF3, around 2850 nM on NPM-ALK-BaF3, around 2510 nM at EML4-ALK (L1196M)-BaF3 and around 7720 nM with wild type BaF3 (Table 11).

Regarding `COC(=O)c1ccccc1Oc1nc(Nc2ccc(N3CCN(C)CC3)cc2OC)nc2cc[nH]c12` [IV-1], the IC50 on EML4-ALK-BaF3 was 6900 nM; on NPM-ALK-BaF3 it was above 10000 nM; on EML4-ALK (L1196M)-BaF3 it was 7310 nM; with wild type BaF3 (Table 11), above 10000 nM.

Regarding `COC(=O)c1ccccc1Oc1nc(Nc2ccc(N3CCC(N4CCN(C)CC4)CC3)cc2OC)nc2cc[nH]c12` [IV-2], the IC50 was around 8980 nM against EML4-ALK-BaF3, around 9140 nM against NPM-ALK-BaF3, 3960 nM on EML4-ALK (L1196M)-BaF3 and around 8450 nM in the test on wild type BaF3 (Table 11).

Turning to `COC(=O)c1ccccc1Oc1nc(Nc2ccc(N3CCC(O)CC3)cc2)nc2cc[nH]c12` [IV-3], the IC50 was 4550 nM on EML4-ALK-BaF3, 8150 nM at NPM-ALK-BaF3, 4340 nM on EML4-ALK (L1196M)-BaF3 and 8920 nM with wild type BaF3 (Table 11).

In the case of `COC(=O)c1ccccc1Oc1nc(Nc2ccc(S(N)(=O)=O)cc2)nc2cc[nH]c12` [IV-4], the 50% inhibitory concentration (IC50) at EML4-ALK-BaF3, against NPM-ALK-BaF3, on EML4-ALK (L1196M)-BaF3 and in the test with wild type BaF3 (Table 11) was above 10000 nM throughout.

For orientation: IC50 means the concentration needed to halve the response being measured.

The values above are taken from patent US10508118B2, “Pyrimidopyrrole compounds, method for preparing the same, pharmaceutical compositions comprising the same and uses thereof” (Xiamen University, priority 2015, dated 2019).
